15 compounds from patent US10681908B2, “Molecules having pesticidal utility, and intermediates, compositions, and processes, related thereto” (Dow AgroSciences LLC, priority 2016, dated 2020) can be followed below.

The subject of experiment [1] is Beet Armyworm (Spodoptera exigua, LAPHEG). The experiment is described as follows: Bioassay on Beet Armyworm (BAW), 128-well diet tray assay. It counts as in vivo. The conditions noted are these: for mortality at 50 µg/cm2: 168 h, 50 μg/cm^2 on artificial diet, second instar larvae, five to seven days, 25° C., read-out: BAW % Control (or Mortality) rating. The method, then: (§1) Example A: Bioassays on Beet Armyworm (Spodoptera Exigua, LAPHEG) (“BAW”), Corn Earworm (Helicoverpa zea, HELIZE) (“CEW”), and Cabbage Looper (Trichoplusia ni, TRIPNI) (“CL”)
(§2) Certain molecules disclosed in this document were tested against BAW, CEW, and CL using procedures described in the following examples. In the reporting of the results, the “BAW, CEW, & CL Rating Table” was used (See Table Section).
Bioassays on BAW were conducted using a 128-well diet tray assay. One to five second instar BAW larvae were placed in each well (3 mL) of the diet tray that had been previously filled with 1 mL of artificial diet to which 50 μg/cm^2 of the test molecule (dissolved in 50 μL of 90:10 acetone-water mixture) had been applied (to each of eight wells) and then allowed to dry. Trays were covered with a clear self-adhesive cover and held at 25° C., 14:10 light-dark for five to seven days. Percent mortality was recorded for the larvae in each well; activity in the eight wells was then averaged. The results are indicated in the table entitled “Table ABC: Biological Results” (See Table Section).
(§3) Bioassays on BAW and CL were conducted according to the procedures outlined in Example A: Bioassays on Beet Armyworm (“BAW”) and Cabbage Looper (“CL”) using the indicated concentrations.

In experiment [2] the test system is Cabbage Looper (Trichoplusia ni, TRIPNI). The experiment is described as follows: Bioassay on Cabbage Looper (CL), 128-well diet tray assay. It counts as in vivo. The conditions noted are these: for mortality at 50 µg/cm2: 168 h, 50 μg/cm^2 on artificial diet, second instar larvae, five to seven days, 25° C., read-out: CL % Control (or Mortality) rating. As to the method: as §1, §2
Bioassays on CL were conducted using a 128-well diet tray assay. One to five second instar CL larvae were placed in each well (3 mL) of the diet tray that had been previously filled with 1 mL of artificial diet to which 50 μg/cm^2 of the test molecule (dissolved in 50 μL of 90:10 acetone-water mixture) had been applied (to each of eight wells) and then allowed to dry. Trays were covered with a clear self-adhesive cover and held at 25° C., 14:10 light-dark for five to seven days. Percent mortality was recorded for the larvae in each well; activity in the eight wells was then averaged. The results are indicated in the table entitled “Table ABC: Biological Results” (See Table Section).
as §3

Where [3] appears, read: 0.05 μg/cm^2, Table CD2 comparative data, read-out: Percent control (or mortality) BAW.
[4] abbreviates: 0.5 μg/cm^2, Table CD2 comparative data, read-out: Percent control (or mortality) BAW.
Where [5] appears, read: 5 μg/cm^2, Table CD2 comparative data, read-out: Percent control (or mortality) BAW.
The mark [6] stands for this setting: 0.05 μg/cm^2, Table CD2 comparative data, read-out: Percent control (or mortality) CL.
The mark [7] stands for this setting: 0.5 μg/cm^2, Table CD2 comparative data, read-out: Percent control (or mortality) CL.
[8] abbreviates: 5 μg/cm^2, Table CD2 comparative data, read-out: Percent control (or mortality) CL.
The mark [9] stands for this setting: 0.05 μg/cm^2, read-out: BAW Percent control (or mortality).
Where [10] appears, read: 0.5 μg/cm^2, read-out: BAW Percent control (or mortality).
Where [11] appears, read: 5 μg/cm^2, read-out: BAW Percent control (or mortality).
[12] abbreviates: 0.05 μg/cm^2, read-out: CL Percent control (or mortality).
Where [13] appears, read: 0.5 μg/cm^2, read-out: CL Percent control (or mortality).
[14] abbreviates: 5 μg/cm^2, read-out: CL Percent control (or mortality).

As usually defined, the mortality is the percentage killed.

Where two headings read alike, the source gives them in different places.

In the case of `Cc1cc(/C(F)=C/C(c2cc(Cl)c(Cl)c(Cl)c2)C(F)(F)F)ccc1C(=O)N[C@H](C)CSCC(F)(F)F` (stereo partly drawn) [F4, 2-Methyl-4-((Z)-1,4,4,4-tetrafluoro-3-(3,4,5-trichlorophenyl)but-1-en-1-yl)-N—((R)-1-((2,2,2-trifluoroethyl)thio)propan-2-yl)benzamide], the mortality at 0.05 µg/cm2 came to 67% in experiment [1] (setting [3]) and 7% in experiment [2] (setting [6]). Also, the figures for the mortality at 0.5 µg/cm2 in experiment [1] (setting [4]) and in experiment [2] (setting [7]) were 100% and 60%, respectively. For the same compound, the mortality at 5 µg/cm2 in experiment [1] (setting [5]) and in experiment [2] (setting [8]) was 100% each time. In addition, the mortality at 50 µg/cm2 in experiment [1] and in experiment [2] was 50 to 100% in each case.
On to `Cc1cc(/C(F)=C/C(c2cc(Cl)c(Cl)c(Cl)c2)C(F)(F)F)ccc1C(=O)N[C@H](C)C[S+]([O-])CC(F)(F)F` (stereo partly drawn) [F5, 2-Methyl-4-((Z)-1,4,4,4-tetrafluoro-3-(3,4,5-trichlorophenyl)but-1-en-1-yl)-N-((2R)-1-((2,2,2-trifluoroethyl)sulfinyl)propan-2-yl)benzamide], for which the mortality at 50 µg/cm2 in experiment [1] and in experiment [2] was 50 to 100% each time.
`Cc1cc(/C(F)=C/C(c2cc(Cl)c(Cl)c(Cl)c2)C(F)(F)F)ccc1C(=O)N[C@H](C)CS(=O)(=O)CC(F)(F)F` (stereo partly drawn) [F6, 2-Methyl-4-((Z)-1,4,4,4-tetrafluoro-3-(3,4,5-trichlorophenyl)but-1-en-1-yl)-N—((R)-1-((2,2,2-trifluoroethyl)sulfonyl)propan-2-yl)benzamide]: the mortality at 50 µg/cm2 in experiment [1] and in experiment [2] was 50 to 100% in each case.
Consider `C[C@H](CSCC(F)(F)F)NC(=O)c1ccc(/C(F)=C/C(c2cc(Cl)c(Cl)c(Cl)c2)C(F)(F)F)cc1Br` (stereo partly drawn) [F7, 2-Bromo-4-((Z)-1,4,4,4-tetrafluoro-3-(3,4,5-trichlorophenyl)but-1-en-1-yl)-N—((R)-1-((2,2,2-trifluoroethyl)thio)propan-2-yl)benzamide], for which the mortality at 0.05 µg/cm2 in experiment [1] (setting [3]) and in experiment [2] (setting [6]) was 0% throughout. The mortality at 0.5 µg/cm2 in experiment [1] (setting [4]) was determined as 100%; in experiment [2] (setting [7]) it was 56%. The mortality at 5 µg/cm2 in experiment [1] (setting [5]) and in experiment [2] (setting [8]) was 100% each time. The mortality at 50 µg/cm2 in experiment [1] and in experiment [2] was 50 to 100% in each case.
For the compound `C[C@H](CS(=O)(=O)CC(F)(F)F)NC(=O)c1ccc(/C(F)=C/C(c2cc(Cl)c(Cl)c(Cl)c2)C(F)(F)F)cc1Br` (stereo partly drawn) [F8, 2-Bromo-4-((Z)-1,4,4,4-tetrafluoro-3-(3,4,5-trichlorophenyl)but-1-en-1-yl)-N—((R)-1-((2,2,2-trifluoroethyl)sulfonyl)propan-2-yl)benzamide], the mortality at 50 µg/cm2 in experiment [1] and in experiment [2] was 50 to 100% each time.
In the case of `C[C@H](C[S+]([O-])CC(F)(F)F)NC(=O)c1ccc(/C(F)=C/C(c2cc(Cl)c(Cl)c(Cl)c2)C(F)(F)F)cc1Br` (stereo partly drawn) [F9, 2-Bromo-4-((Z)-1,4,4,4-tetrafluoro-3-(3,4,5-trichlorophenyl)but-1-en-1-yl)-N-((2R)-1-((2,2,2-trifluoroethyl)sulfinyl)propan-2-yl)benzamide], the mortality at 50 µg/cm2 in experiment [1] and in experiment [2] was 50 to 100% each time.
For `C[C@H](CSCC(F)(F)F)NC(=O)c1ccc(/C(F)=C/C(c2cc(Cl)c(Cl)c(Cl)c2)C(F)(F)F)cc1Cl` (stereo partly drawn) [F10, 2-Chloro-4-((Z)-1,4,4,4-tetrafluoro-3-(3,4,5-trichlorophenyl)but-1-en-1-yl)-N—((R)-1-((2,2,2-trifluoroethyl)thio)propan-2-yl)benzamide], the results for the mortality at 0.05 µg/cm2 in experiment [1] (setting [3]) and in experiment [2] (setting [6]) were 0% and 6%, respectively. The mortality at 0.5 µg/cm2 in experiment [1] (setting [4]) and in experiment [2] (setting [7]) was 100% in each case. Moreover, the mortality at 5 µg/cm2 in experiment [1] (setting [5]) and in experiment [2] (setting [8]) was 100% throughout. In addition, the mortality at 50 µg/cm2 in experiment [1] and in experiment [2] was 50 to 100% throughout.
In the case of `C[C@H](CS(=O)(=O)CC(F)(F)F)NC(=O)c1ccc(/C(F)=C/C(c2cc(Cl)c(Cl)c(Cl)c2)C(F)(F)F)cc1Cl` (stereo partly drawn) [F11, 2-Chloro-4-((Z)-1,4,4,4-tetrafluoro-3-(3,4,5-trichlorophenyl)but-1-en-1-yl)-N—((R)-1-((2,2,2-trifluoroethyl)sulfonyl)propan-2-yl)benzamide], the mortality at 50 µg/cm2 in experiment [1] and in experiment [2] was 50 to 100% in each case.
`C[C@H](C[S+]([O-])CC(F)(F)F)NC(=O)c1ccc(/C(F)=C/C(c2cc(Cl)c(Cl)c(Cl)c2)C(F)(F)F)cc1Cl` (stereo partly drawn) [F12, 2-Chloro-4-((Z)-1,4,4,4-tetrafluoro-3-(3,4,5-trichlorophenyl)but-1-en-1-yl)-N-((2R)-1-((2,2,2-trifluoroethyl)sulfinyl)propan-2-yl)benzamide]: the mortality at 50 µg/cm2 in experiment [1] and in experiment [2] was 50 to 100% each time.
Turning to `Cc1cc(/C(F)=C/C(c2cc(Cl)c(Cl)c(Cl)c2)C(C)(F)F)ccc1C(=O)N[C@H](C)CSCC(F)(F)F` (stereo partly drawn) [F13, 2-Methyl-4-((Z)-1,4,4-trifluoro-3-(3,4,5-trichlorophenyl)pent-1-en-1-yl)-N—((R)-1-((2,2,2-trifluoroethyl)thio)propan-2-yl)benzamide], the mortality at 50 µg/cm2 in experiment [1] and in experiment [2] was 50 to 100% each time.
In the case of `Cc1cc(/C(F)=C/C(c2cc(Cl)c(Cl)c(Cl)c2)C(C)(F)F)ccc1C(=O)N[C@H](C)CS(=O)(=O)CC(F)(F)F` (stereo partly drawn) [F14, 2-Methyl-4-((Z)-1,4,4-trifluoro-3-(3,4,5-trichlorophenyl)pent-1-en-1-yl)-N—((R)-1-((2,2,2-trifluoroethyl)sulfonyl)propan-2-yl)benzamide], the figures for the mortality at 0.05 µg/cm2 in experiment [1] (setting [9]) and in experiment [2] (setting [12]) were 69% and 100%, respectively. Also, the mortality at 0.5 µg/cm2 in experiment [1] (setting [10]) and in experiment [2] (setting [13]) was 100% each time. Besides, the mortality at 5 µg/cm2 in experiment [1] (setting [11]) and in experiment [2] (setting [14]) was 100% throughout. The mortality at 50 µg/cm2 in experiment [1] and in experiment [2] was 50 to 100% each time.
With `C[C@H](CSCC(F)(F)F)NC(=O)c1ccc(/C(F)=C/C(c2cc(Cl)c(Cl)c(Cl)c2)C(C)(F)F)cc1C(F)(F)F` (stereo partly drawn) [F15, 4-((Z)-1,4,4-Trifluoro-3-(3,4,5-trichlorophenyl)pent-1-en-1-yl)-N—((R)-1-((2,2,2-trifluoroethyl)thio)propan-2-yl)-2-(trifluoromethyl)benzamide], the mortality at 50 µg/cm2 in experiment [1] and in experiment [2] was 50 to 100% in each case.
Consider `C[C@H](CS(=O)(=O)CC(F)(F)F)NC(=O)c1ccc(/C(F)=C/C(c2cc(Cl)c(Cl)c(Cl)c2)C(C)(F)F)cc1C(F)(F)F` (stereo partly drawn) [F16, 4-((Z)-1,4,4-Trifluoro-3-(3,4,5-trichlorophenyl)pent-1-en-1-yl)-N—((R)-1-((2,2,2-trifluoroethyl)sulfonyl)propan-2-yl)-2-(trifluoromethyl)benzamide], for which the mortality at 0.05 µg/cm2 in experiment [1] (setting [9]) and in experiment [2] (setting [12]) was 100% throughout. The mortality at 0.5 µg/cm2 in experiment [1] (setting [10]) and in experiment [2] (setting [13]) was 100% throughout. Besides, the mortality at 5 µg/cm2 in experiment [1] (setting [11]) and in experiment [2] (setting [14]) was 100% in each case. Also, the mortality at 50 µg/cm2 in experiment [1] and in experiment [2] was 50 to 100% each time.
Consider `C[C@H](CSCC(F)(F)F)NC(=O)c1ccc(/C(F)=C/C(c2cc(Cl)c(Br)c(Cl)c2)C(F)(F)F)cc1C(F)(F)F` (stereo partly drawn) [F24, 4-((Z)-3-(4-Bromo-3,5-dichlorophenyl)-1,4,4,4-tetrafluorobut-1-en-1-yl)-N—((R)-1-((2,2,2-trifluoroethyl)thio)propan-2-yl)-2-(trifluoromethyl)benzamide], for which the mortality at 50 µg/cm2 in experiment [1] and in experiment [2] was 50 to 100% each time.
With `CCC(F)(F)C(/C=C(\F)c1ccc(C(=O)N[C@H](C)CS(=O)(=O)CC(F)(F)F)c(C(F)(F)F)c1)c1cc(Cl)c(Cl)c(Cl)c1` (stereo partly drawn) [F38, 4-((Z)-1,4,4-Trifluoro-3-(3,4,5-trichlorophenyl)hex-1-en-1-yl)-N—((R)-1-((2,2,2-trifluoroethyl)sulfonyl)propan-2-yl)-2-(trifluoromethyl)benzamide], the mortality at 50 µg/cm2 in experiment [1] and in experiment [2] was 50 to 100% throughout.
